How the values were obtained:
BALB/c male mice [1] = assay: Mice Behavior an Elevated Cross Shaped Labyrinth; format: in vivo; conditions: preference index for open sections, number of defecations
Text: The length of each section in the labyrinth is 30 cm, the width is 5 cm, the height of the walls is 15 cm. Two opposite sections are closed by transparent walls on the sides and on the butt ends, the other two sections are lit and opened. A mouse was placed in the center of the labyrinth and for the next five minutes the number of entries the open and closed sections and the time spent in each type of section was registered. […] The animals usually avoid the open sections (the preference index is between 0.2 and 0.3).

BALB/c male mice [2] = assay: Training Mice in the Morris Water labyrinth, scopolamine; format: in vivo; conditions: scopolamine 0.6 mg/kg; 1.2.1(5)HCl 0.1 mg/kg, 1.2.1(1)HCl 1 mg/kg, tacrine 3 mg/kg
Procedure: A circular pool of 100 cm diameter and of 30 cm sides was used. It was filled with water at 20-22° C. A circular ceramic platform of 14 cm height was placed in the pool. The behavior of the animals was registered using an automated computer video system in addition with software package of movement analyzer Any-maze (Stoelting Colo., US). The experiments were carried out on aged male mice of BALB/c line weighing 20-24 grams. Before the experiments mice fit for learning were selected. This was done by placing the platform 1 cm above the water level and putting an animal on the platform for 20 seconds. Then the mouse was put in the water on the opposite side of the pool and allowed to find the platform and climb onto it for 60 seconds, where it was left for additional 20 seconds. After that the mouse was repeatedly immersed in the water on the opposite side of the pool and allowed to search for the platform. If it failed in finding the platform within 60 seconds the experimentator helped it to find the platform and climb onto it. If the mice couldn't find the platform itself in two consecutive attempts it was excluded from the experiment. During the next two days the platform was placed 0.5 centimeters lower the water level. Every day the mice were given four attempts for finding the platform within 60 seconds. The time interval between the attempts was 20 seconds, during which the mice stayed on the platform. Every day before the first attempt the mice was placed on the platform for 20 seconds. The time needed for finding and climbing the platform was registered. The animals were sunk in water in two different places on the side of the pool opposite to the platform. […] The animals of the control group were injected with physiological solution. At least 8 animals were used in each group. On the third day the platform was removed and each animal was placed in the pool once for a period of 60 seconds. The time each mouse spent in the area where the platform had been located during the previous days was registered. […]

[3] = test system: calcium canals regulated by the intracellular calcium depot; assay: Histamine-induced calcium stream in SK-N-SH cells, Phase 2 (lowering of intracellular calcium concentration); format: cell-based; conditions: Homo sapiens, 10 μM histamine, Fura 2 AM, Phase 2: discharge of intraplasmatic calcium
BALB/c male mice [4] = assay: Passive Avoidance of Mice in a Shuttle Chamber, scopolamine or MK-801 (Example 8); format: in vivo; conditions: scopolamine 0.3 mg/kg or MK-801 0.1 mg/kg
Procedure: Example 7. […] A shuttle chamber (Ugo Basile, Italy) consisted of two sections was used. […] The sections were connected via a hole which could be shut with a vertical door. The floor was made of transverse metal bars on which DC current impulses could be fed. Experiments were carried out on aged male mice of line BALB/c weighing 20-24 grams.
On the first day of the experiment 30 minutes before training the mice were injected intraintestinally with physiological solution of scopolamine (0.3 mg/kg) or scopolamine in combination with antagonists of 5-HT6 receptors 1.2.1(2)HCl, 1.2.1(4)HCl or 1.2.1(5)HCl. Each group consisted of at least 8 animals. The animals were placed in the light section, and the latent period of the first entry into the dark chamber was registered. Then the vertical door was closed and the animal was punished by 0.6 mA DC current for 3 seconds. After that the animal was carried back to its living cell. In 22-24 hours the same animal was placed in the light section of the shuttle chamber once again and the latent period before its entry into the dark section, the total time of its stay in the light section and the number of entries into the dark section were registered. Each observation lasted for 5 minutes.
The experiment was carried out in the same way as in example 7. On the first day 30 minutes before training the mice were injected intra-intestinally with a physiological solution of scopolamine (0.3 mg/kg) or MK-801(0.1 mg/kg).

SHK male mice = assay: Recognition of New Objects by Mice Under Scopolamine and MK-801; format: in vivo; conditions: scopolamine 1 mg/kg and MK-801 0.2 mg/kg
Procedure: The experiments were carried out in a closed cross shaped labyrinth which consisted of 4 peripheral sections connected with the central chamber via a 7×7 cm hole. The labyrinth was made of black plastic and its sections were of 14×14×14 cm size. The top cover of the labyrinth was transparent.
A mouse was placed in the central section of the labyrinth and allowed to investigate the environment. A mouse was considered to have entered a section once all of its four paws were inside the chamber. A test was considered to be completed when the mouse had moved 12 times between the sections, having made a total of 13 visits. The floor of the labyrinth was cleaned after each animal.
With each mouse the test was carried out twice with 1 hour interval.
During the first test, each section of the labyrinth contained a circular plastic cup of 3 cm height and 7 cm diameter. During the second test the cover in each of the two opposing sections was replaced by a conical glass bulb of 7 cm height and 4 cm across the bottom. The time that the mice spent in each section of the labyrinth was registered and the index of new object recognition was calculated as the ratio of the time spent in the sections with the bulbs to the time spent in all sections of the labyrinth. If no preference is given to the sections with new objects the index is 0.5.
When new objects appear the mice spend more time in the section containing them that results in an increased recognition index. Scopolamine (1 mg/kg) and MK-801 (0.2 mg/kg) disturbed learning (memory) that leads to lowering of the recognition index.

BALB/c male mice [5] = assay: Passive Avoidance of Mice in a Shuttle Chamber, memory disturbed by scopolamine (Example 7); format: in vivo; conditions: scopolamine 0.3 mg/kg, injected 30 minutes before training
Procedure: Example 7. […] A shuttle chamber (Ugo Basile, Italy) consisted of two sections was used. […] The sections were connected via a hole which could be shut with a vertical door. The floor was made of transverse metal bars on which DC current impulses could be fed. Experiments were carried out on aged male mice of line BALB/c weighing 20-24 grams. […] Each group consisted of at least 8 animals. The animals were placed in the light section, and the latent period of the first entry into the dark chamber was registered. Then the vertical door was closed and the animal was punished by 0.6 mA DC current for 3 seconds. After that the animal was carried back to its living cell. In 22-24 hours the same animal was placed in the light section of the shuttle chamber once again and the latent period before its entry into the dark section, the total time of its stay in the light section and the number of entries into the dark section were registered. Each observation lasted for 5 minutes. The experiment was carried out during the day time in an isolated laboratory using white noise at a level of about 70 decibel above the human hearing threshold. Scopolamine causes the disturbance of training (memory loss) which results in […]. The fact that 5-HT6 receptor antagonists can improve the learning ability that has been disturbed by scopolamine is regarded as evidence for their nootropic effect.

Row | EC50 [3] [µM] | SMILES | tranquilizing action (elevated cross shaped labyrinth, figure 19-21) (BALB/c male mice [1]) | improvement of mice's training (Morris water labyrinth, FIGS. 11-12) (BALB/c male mice [2]) | nootropic action (passive avoidance, FIGS. 5-10) (BALB/c male mice [4]) | nootropic action (new object recognition, FIG. 13-14) (SHK male mice) | nootropic action (passive avoidance, FIGS. 2-4) (BALB/c male mice [5])
1 |  | O=C1CC2(CCCC2)CC(=O)N1CCCCN1CCN(c2ncccn2)CC1 [Buspiron] | exhibit a tranquilizing action |  |  |  | 
2 |  | Nc1c2c(nc3ccccc13)CCCC2 [tacrine] |  | statistically significant improvement of mice's training |  |  | 
3 | 0.15 | Cc1ccc2c(c1)c1c(n2CCc2ccccc2)CCN(C)C1.Cl [1.2.1(1)HCl, 2,8-dimethyl-5-(2-phenylethyl)-2,3,4,5-tetrahydro-1H-pyrido[4,3-b]indole hydrochloride] | exhibit a tranquilizing action, which is the most prominent | statistically significant improvement of mice's training | highest activity | nootropic action, the level of which is the most prominent | 
4 | 1.58 | Cc1ccc2c(c1)c1c(n2CCc2ccc(C)nc2)CCN(C)C1.Cl [1.2.1(5)HCl, 2,8-dimethyl-5-[2-(6-methylpyridin-3-yl)ethyl]-2,3,4,5-tetrahydro-1H-pyrido[4,3-b]indole hydrochloride] | exhibit a tranquilizing action | statistically significant improvement of mice's training | exhibit a nootropic action | nootropic action | exhibit a nootropic action

— US20190233409A1, “SUBSTITUTED 2,3,4,5-TETRAHYDRO-1H-PYRIDO[4,3-B]INDOLES, METHODS FOR USE THEREOF” (priority 2017, published 2019)
